Reference: publication PMC4529466, “Intradermal insulin infusion achieves faster insulin action than subcutaneous infusion for 3-day wear” (Drug Delivery and Translational Research, 2015)

System: blood glucose
Assay: Postprandial blood glucose pharmacodynamics after meal bolus, 3-day ID vs SC infusion
Format: in vivo, human (T1DM patients)
Conditions: SC; for BGavg0–1 / BGmax0–1 / ΔAUC-BG0–1 / ΔBGmax0–1 / BGavg0–1.5 / BGmax0–1.5 / ΔAUC-BG0–1.5 / ΔBGmax0–1.5 / BGavg0–2 / BGmax0–2 / ΔAUC-BG0–2 / ΔBGmax0–2 / BGavg0–4 / BGmax0–4 / ΔAUC-BG0–4 / ΔBGmax0–4 / BG1 / ΔBG1 / BG1.5 / ΔBG1.5 / BG2 / ΔBG2 / BG4 / ΔBG4: mean ± SD; for BG1 / ΔBG1: at 1 h; for BG1.5 / ΔBG1.5: at 1.5 h; for BG2 / ΔBG2: at 2 h; for BG4 / ΔBG4: at 4 h
Description: This was a single center, open-label, two-period crossover study, randomized by infusion order, in T1DM patients on continuous subcutaneous insulin infusion (CSII). The protocol was approved by an independent ethics committee (Ethikkommission der Ärztekammer Nordrhein, Düsseldorf, Germany), appropriate regulatory bodies (German Federal Institute for Drugs and Medical Devices (BfArM)), and conducted in compliance with good clinical practice (GCP), the Declaration of Helsinki, and applicable regulatory requirements.
The study was completed over a multi-week period consisting of three study visits: a screening visit (V1) and two interventional visits (V2 and V3). After establishing eligibility and enrollment, patients received treatment during two interventional visits: one SC and one ID basal/bolus infusion of insulin aspart (NovoRapid® U-100, Novo Nordisk, Copenhagen, Denmark) administered over 3 days in a randomized order.
Individual meal bolus doses were determined based on patient self-reported insulin to carbohydrate ratios and insulin sensitivity, historical self-reported insulin usage for meal coverage, and clinician review and adjustment of insulin usage during the in-clinic BG stabilization period the evening prior to the first morning meal. Basal insulin infusion rates were initiated based on the patient’s known daily delivery profile and could be adjusted by the clinician to maintain levels within 70–160 mg/dL according to a predetermined sliding scale and hourly changes in glycemia. A continuous glucose monitor (Seven Plus®, DexCom Inc., San Diego, CA) calibrated per manufacturer’s recommendations was applied to continuously monitor glycemia as a safety measure, in addition to periodic blood sampling for BG determination.
After maintaining targeted blood glucose range during the preceding night, bolus insulin doses were administered via the respective infusion catheter prior to standardized breakfast and lunch test meals on each of the three treatment days. Each meal insulin bolus was calculated based on the patient’s insulin sensitivity and previous hours change in BG per sliding scale then delivered immediately prior to breakfast (t = 0 min) and lunch (t = 360 min) consumption. Breakfast was a high glycemic index (60 g carbohydrates) solid meal, and lunch was a mixed meal based on the individual’s calculated daily energy intake and equivalent in caloric composition by day. Breakfast and lunch meals were consumed within 15 min followed by serial blood sampling with BG monitoring for a period of 6 and 4 h, respectively. Patients were asked to remain sedentary for 2 h after meals. Identical study procedures were utilized for the remaining dosing visit days (Fig. 2).
To assess insulin absorption kinetics and glycemic response, blood samples for measurements of insulin aspart and blood glucose in serum were drawn at predefined time points throughout dosing visits. Serial samples for safety BG determination, but not PK analysis, were obtained at a minimum every 2 h. Meal PK/PD analysis samples were acquired immediately pre-bolus and for 4–6 h post-bolus for breakfast and lunch meals, with a higher frequency during the first 2 h to capture insulin and BG peak levels {Post-bolus breakfast time points (min): 0, 10, 15, 20, 25, 30, 35, 40, 45, 50, 55, 60, 65, 70, 80, 90, 120, 150, 180, 210, 240, 300, 330, 360; Post-bolus lunch time points (min): 0, 10, 20, 30, 40, 50, 60, 70, 80, 90, 120, 180, 240, 300}. Sampling times were based on previous clinical study experience for bolus microneedle insulin delivery and had increased sampling frequency in the first 90 min post-delivery to capture the rapid insulin peaks from microneedle ID delivery. Blood samples for evening meal and basal period PK assessment could not be obtained due to daily blood draw volume limits for patient safety. Serum insulin aspart was measured by a third party laboratory (IKFE GmbH, Mainz, Germany) using a validated insulin assay (Invitron ELISA kit). […]

[1] = 0–1 h, Days 1–3 combined, all test meals, n = 150–156
[2] = 0–1 h, across all study days and meals
[3] = 0–1.5 h, Days 1–3 combined, all test meals, n = 150–156
[4] = 0–1.5 h, across all study days and meals
[5] = 0–2 h, Days 1–3 combined, all test meals, n = 150–156
[6] = 0–2 h, across all study days and meals
[7] = 0–4 h, Days 1–3 combined, all test meals, n = 150–156
[8] = Days 1–3 combined, all test meals, n = 150–156

## insulin aspart
  BG at 1 h: 165
0–1 h, Day 1, across meals
  BGavg0–1: 138 ± 33.4 mg/dL
  BGmax0–1: 166 ± 40.1 mg/dL
  ΔAUC-BG0–1: 29.1 ± 25.7 mg·h/dL
  ΔBGmax0–1: 57.1 ± 36.0 mg/dL
0–1 h, Day 2, across meals
  BGavg0–1: 147 ± 32.5 mg/dL
  BGmax0–1: 176 ± 39.2 mg/dL
  ΔAUC-BG0–1: 26.7 ± 20.9 mg·h/dL
  ΔBGmax0–1: 55.8 ± 31.0 mg/dL
0–1 h, Day 3, across meals
  BGavg0–1: 145 ± 30.3 mg/dL
  BGmax0–1: 175 ± 37.9 mg/dL
  ΔAUC-BG0–1: 26.5 ± 19.5 mg·h/dL
  ΔBGmax0–1: 57.2 ± 33.0 mg/dL
[1]
  BGavg0–1: 143 ± 32.2 mg/dL
  BGmax0–1: 172 ± 39.2 mg/dL
  ΔAUC-BG0–1: 27.5 ± 22.2 mg·h/dL
  ΔBGmax0–1: 56.7 ± 33.3 mg/dL
[2]
  Intra-subject variability of BGavg: 18.2 %CV
  Intra-subject variability of BGmax: 18.1 %CV
0–1.5 h, Day 1, across meals
  BGavg0–1.5: 144 ± 36.0 mg/dL
  BGmax0–1.5: 174 ± 43.6 mg/dL
  ΔAUC-BG0–1.5: 53.4 ± 46.7 mg·h/dL
  ΔBGmax0–1.5: 65.0 ± 42.3 mg/dL
0–1.5 h, Day 2, across meals
  BGavg0–1.5: 154 ± 35.3 mg/dL
  BGmax0–1.5: 182 ± 41.7 mg/dL
  ΔAUC-BG0–1.5: 50.8 ± 40.9 mg·h/dL
  ΔBGmax0–1.5: 61.6 ± 33.2 mg/dL
0–1.5 h, Day 3, across meals
  BGavg0–1.5: 152 ± 33.4 mg/dL
  BGmax0–1.5: 182 ± 40.0 mg/dL
  ΔAUC-BG0–1.5: 51.3 ± 39.8 mg·h/dL
  ΔBGmax0–1.5: 63.9 ± 36.8 mg/dL
[3]
  BGavg0–1.5: 150 ± 35.0 mg/dL
  BGmax0–1.5: 179 ± 41.8 mg/dL
  ΔAUC-BG0–1.5: 51.9 ± 42.5 mg·h/dL
  ΔBGmax0–1.5: 63.6 ± 37.6 mg/dL
[4]
  Intra-subject variability of BGavg: 18.2 %CV
  Intra-subject variability of BGmax: 17.9 %CV
0–2 h, Day 1, across meals
  BGavg0–2: 147 ± 39.3 mg/dL
  BGmax0–2: 178 ± 49.1 mg/dL
  ΔAUC-BG0–2: 77.0 ± 73.2 mg·h/dL
  ΔBGmax0–2: 69.7 ± 49.0 mg/dL
0–2 h, Day 2, across meals
  BGavg0–2: 157 ± 38.2 mg/dL
  BGmax0–2: 186 ± 43.4 mg/dL
  ΔAUC-BG0–2: 73.6 ± 63.3 mg·h/dL
  ΔBGmax0–2: 65.5 ± 34.7 mg/dL
0–2 h, Day 3, across meals
  BGavg0–2: 155 ± 36.1 mg/dL
  BGmax0–2: 186 ± 42.4 mg/dL
  ΔAUC-BG0–2: 75.1 ± 63.0 mg·h/dL
  ΔBGmax0–2: 68.1 ± 40.3 mg/dL
[5]
  BGavg0–2: 153 ± 38.0 mg/dL
  BGmax0–2: 183 ± 45.1 mg/dL
  ΔAUC-BG0–2: 75.3 ± 66.5 mg·h/dL
  ΔBGmax0–2: 67.8 ± 41.8 mg/dL
[6]
  Intra-subject variability of BGavg: 19.3 %CV
  Intra-subject variability of BGmax: 18.5 %CV
0–4 h, Day 1, across meals
  BGavg0–4: 142 ± 41.2 mg/dL
  BGmax0–4: 179 ± 44.4 mg/dL
  ΔAUC-BG0–4: 133 ± 160 mg·h/dL
  ΔBGmax0–4: 76.5 ± 54.6 mg/dL
0–4 h, Day 2, across meals
  BGavg0–4: 155 ± 44.0 mg/dL
  BGmax0–4: 193 ± 49.3 mg/dL
  ΔAUC-BG0–4: 140 ± 157 mg·h/dL
  ΔBGmax0–4: 72.3 ± 40.0 mg/dL
0–4 h, Day 3, across meals
  BGavg0–4: 156 ± 40.1 mg/dL
  BGmax0–4: 194 ± 41.7 mg/dL
  ΔAUC-BG0–4: 154 ± 148 mg·h/dL
  ΔBGmax0–4: 76.2 ± 40.4 mg/dL
[7]
  BGavg0–4: 151 ± 42.0 mg/dL
  BGmax0–4: 188 ± 45.4 mg/dL
  ΔAUC-BG0–4: 142 ± 155 mg·h/dL
  ΔBGmax0–4: 75.0 ± 45.6 mg/dL
0–4 h, across all study days and meals
  Intra-subject variability of BGmax: 18.0 %CV
Day 1, across meals
  BG1: 158 ± 43.8 mg/dL
  ΔBG1: 49.0 ± 41.5 mg/dL
  BG1.5: 156 ± 51.2 mg/dL
  ΔBG1.5: 47.5 ± 51.9 mg/dL
  BG2: 152 ± 60.1 mg/dL
  ΔBG2: 43.7 ± 62.7 mg/dL
  BG4: 139 ± 52.4 mg/dL
  ΔBG4: 29.7 ± 53.3 mg/dL
Day 2, across meals
  BG1: 169 ± 40.9 mg/dL
  ΔBG1: 48.8 ± 37.9 mg/dL
  BG1.5: 167 ± 48.3 mg/dL
  ΔBG1.5: 47.2 ± 44.8 mg/dL
  BG2: 164 ± 54.2 mg/dL
  ΔBG2: 44.0 ± 51.2 mg/dL
  BG4: 148 ± 59.4 mg/dL
  ΔBG4: 27.7 ± 56.8 mg/dL
Day 3, across meals
  BG1: 170 ± 40.9 mg/dL
  ΔBG1: 51.8 ± 37.9 mg/dL
  BG1.5: 167 ± 48.3 mg/dL
  ΔBG1.5: 48.9 ± 48.1 mg/dL
  BG2: 164 ± 52.3 mg/dL
  ΔBG2: 46.2 ± 52.4 mg/dL
  BG4: 153 ± 48.9 mg/dL
  ΔBG4: 35.1 ± 47.2 mg/dL
[8]
  BG1: 165 ± 42.1 mg/dL
  ΔBG1: 49.8 ± 39.0 mg/dL
  BG1.5: 163 ± 49.3 mg/dL
  ΔBG1.5: 47.9 ± 48.2 mg/dL
  BG2: 160 ± 55.7 mg/dL
  ΔBG2: 44.6 ± 55.6 mg/dL
  BG4: 146 ± 53.7 mg/dL
  ΔBG4: 30.8 ± 52.3 mg/dL
Time 1 h, across all study days and meals
  Intra-subject variability of BG: 20.2 %CV
Time 1.5 h, across all study days and meals
  Intra-subject variability of BG: 24.5 %CV
Time 2 h, across all study days and meals
  Intra-subject variability of ΔBG: 61.4 %CV
